Assays:
GABA A α1 receptor = assay: mRNA expression level of GABA A α1 receptor in cerebral cortex (real-time PCR), caffeine-induced sleep disturbance; type: in vivo, mouse; settings: 30 mg/kg saponarin or 200 mg/kg St. John's wort orally for 14 days, caffeine i.p.; cortex obtained on Day 15; compared to control; FIG. 6, p<0.01
Experimental: (§1) 30 mg/kg saponarin (Sigma-Aldrich, St. Louis, Mo., USA; dissolved in 0.5% CMC solution) and 200 mg/kg St. John's wort (dissolved in 0.5% CMC solution) were aliquoted to satisfy the administration amount and orally administered one hour before the caffeine administration. To the normal and stress control, 0.5% CMC solution was orally administered while 30 mg/kg saponarin was administered to the saponarin group and 200 mg/kg St. John's wort was administered to the positive control, in an amount of 0.1 ml for each.
(§2) Nine-week old male C57BL/6 mouse with bodyweight of 20 to 22 g was obtained from DBL Co., Ltd. (Eumseong-Gun, Chungcheong-Bukdo, Korea). […]
(§3) Expression pattern of the gene in cerebral cortex, which has been removed from each test animal upon the completion of the test, was determined by real-time PCR. The cerebral cortex tissues of a mouse were treated with RNAzolB (Tel-Test) to extract RNA, and then analyzed by cDNA and real-time PCR instrument using One-step SYBR Green PCR kit (AB science).
(§4) The cerebral cortex tissues were added with 500 μl of RNAzol(B), disrupted using a homogenizer, and then added with 50 μl of chloroform (CHCl3) followed by mixing again for 15 seconds. […] Real time quantitative PCR was carried out by using Applied Biosystems 7500 Real-Time PCR system (Applied Biosystems, USA). […]

[1] = system: SD rat induced to have sleep disturbance by stress; assay: Electroencephalography (EEG) measurement in animal model with sleep disturbance induced by stress; type: in vivo; settings: foot pad electric shock stress for 5 days, compared to stress control
Experimental: The saponarin administration group was administered orally with 0.1 ml of saponarin, 30 minutes before the stress application. The normal and stress control were administered orally with 0.1 ml of a solvent. Operation was carried out for four divided groups, i.e., normal, control, saponarin, and positive control (St. John's wort), and total 24 animals were used, i.e., 6 animals per group.
A male rat (7 week old) was suitably fed with solid feed and water till the test day. After the acclimation for 1 week in an environment in which temperature of 23 to 25° C., humidity of 45 to 60%, and illuminance of 200 to 300 LUX, and 12 hour light and dark cycle are maintained, the animals were subjected to the test. For the operation, a 7-week old Sprague Dawley (SD) rat was anesthetized by intraperitoneal injection of 40 mg/kg pentobarbital, and then placed and fixed on a stereotaxic instrument (Stoelting CO, USA) such that the bregma and lambda are in horizontal alignment. After suppressing subgaleal bleeding, hairs were shaved and the skull was exposed by excising the scalp and removing the periosteum. Based on the anatomy drawing by Paxinos & Watson, a hole was created by using drill, an electrode was inserted to reach the dura mater, and an electrode composed of two silver wires was inserted to neck muscle to record an electromyogram. On top of the cranial bone of cerebellum, pins attached with an electrode for recording an electroencephalogram and an electrode for recording an electromyogram were placed and fixed on top of the cranial bone by applying dental cement. […]
After the stress for 5 days, the rat was orally administered with each pharmaceutical, and, after 30 minutes, EEG recording was carried out in a light-blocking acrylic cylinder (PM 8:00 to AM 8:00). The wake time and sleep (REM and NonREM) time were recorded by using SleepSign Ver. […]
After 30 minutes, foot pad electric shock was applied to the SD rats to induce for 5 days sleep disturbance caused by stress. Wake time was then measured for each rat.

[2] = system: C57BL/6 mouse induced to have sleep disturbance by caffeine; assay: Open field test in animal model with sleep disturbance induced by caffeine; type: in vivo; settings: 30 mg/kg saponarin or 200 mg/kg St. John's wort orally for 14 days, compared to control
Experimental: as §1
Nine-week old male C57BL/6 mouse with bodyweight of 20 to 22 g was obtained from DBL Co., Ltd. (Eumseong-Gun, Chungcheong-Bukdo, Korea). The animal was supplied with a sufficient amount of water and solid feed (not added with any antibiotics, Samyang Animal Feed Co.) till the test day, and it was used for the experiment after acclimation for 1 week under an environment with temperature of 22±2° C., humidity of 55±15%, and 12-hour light and dark cycle. The experiment was carried out as illustrated in FIG. 1. Chemicals were orally administered every day for 14 days in total, and, according to intraperitoneal administration of 10 mg/kg caffeine 1 hour thereafter, sleep disturbance was induced.
Open field test is to determine sleep disturbance and amelioration level obtained by pharmaceutical in which the determination is made by measuring the voluntary movement of a mouse after entering an unfamiliar field for the first time. A mouse was placed at the center (30×30×30 cm) of a white box, which is made of white acryl, and then travel distance (total distance moved), mobility time, mobility frequency and immobility time for 1 hour were analyzed by using Video tracking software (Ethovision XT, Noldus, Nederland).
The saponarin administration group was orally administered with 30 mg/kg saponarin. After one hour, the animal was intraperitoneally administered with 10 mg/kg caffeine to induce sleep disturbance caused by caffeine for 14 days. Then, travel distance of the mouse was measured.
Then, the mobility time and mobility frequency were measured.
Thereafter, the immobility time of mouse was measured.

neuropeptide Y = assay: mRNA expression level of neuropeptide Y in cerebral cortex (real-time PCR), caffeine-induced sleep disturbance; type: in vivo, mouse; settings: 30 mg/kg saponarin or 200 mg/kg St. John's wort orally for 14 days, caffeine i.p.; cortex obtained on Day 15; compared to control; FIG. 5A
Experimental: as §1, §2, §3, §4

cholecystokinin = assay: mRNA expression level of cholecystokinin in cerebral cortex (real-time PCR), caffeine-induced sleep disturbance; type: in vivo, mouse; settings: 30 mg/kg saponarin or 200 mg/kg St. John's wort orally for 14 days, caffeine i.p.; cortex obtained on Day 15; compared to control; FIG. 5B
Experimental: as §1, §2, §3, §4

O=c1cc(-c2ccc(O)cc2)oc2cc(O[C@@H]3O[C@H](CO)[C@@H](O)[C@H](O)[C@H]3O)c([C@@H]3O[C@H](CO)[C@@H](O)[C@H](O)[C@H]3O)c(O)c12 [saponarin, (1S)-1,5-anhydro-1-[7-(beta-D-glucopyranosyloxy)-5-hydroxy-2-(4-hydroxyphenyl)-4-oxo-4H-chromen-6-yl]-D-glucitol]
mRNA expression of GABA A α1 receptor in cerebral cortex (GABA A α1 receptor): increased mRNA expression of GABA A α1 receptor in significant sense | wake time during sleep by EEG ([1]; 30 mg/kg saponarin or 200 mg/kg St. John's wort orally, FIG. 8, p<0.05): decreased in significant sense | REM sleep time by EEG ([1]; 30 mg/kg saponarin orally, FIG. 9): tends to increase | NonREM sleep time by EEG ([1]; 30 mg/kg saponarin orally, FIG. 10): tends to increase | travel distance (total distance moved), open field test ([2]; 10 mg/kg caffeine i.p. 1 hour later, FIG. 2, p<0.05): decreased in significant sense | mobility time, open field test ([2]; 10 mg/kg caffeine i.p., FIG. 3A, p<0.01): decreased in significant sense | mobility frequency, open field test ([2]; 10 mg/kg caffeine i.p., FIG. 3B, p<0.01): decreased in significant sense | immobility time, open field test ([2]; 10 mg/kg caffeine i.p., FIG. 4): increased | mRNA expression of neuropeptide Y in cerebral cortex (neuropeptide Y): show increased expression or tend to show increased expression in statistically significant sense | mRNA expression of cholecystokinin in cerebral cortex (cholecystokinin): show increased expression or tend to show increased expression in statistically significant sense
